Measurements: publication PMC11619344 (Antimicrobial Agents and Chemotherapy, 2024)
≈ marks a conversion by molar mass, not a printed value.

Key:
Assay type in all cases: cell-based
[1] = test system: K. pneumoniae ST512/KPC-31 (KPC-3 D179Y) parental clinical isolate; assay: MIC, broth microdilution; conditions: Klebsiella pneumoniae
[2] = test system: ST512/KPC-31 mutant IMI 1.1; assay: MIC, broth microdilution; conditions: Klebsiella pneumoniae
[3] = test system: ST512/KPC-31 mutant IMI 1.2; assay: MIC, broth microdilution; conditions: Klebsiella pneumoniae
[4] = test system: ST512/KPC-31 mutant IMI 2.1; assay: MIC, broth microdilution; conditions: Klebsiella pneumoniae
[5] = test system: ST512/KPC-31 mutant IMI 2.2; assay: MIC, broth microdilution; conditions: Klebsiella pneumoniae
[6] = test system: ST512/KPC-31 mutant IMI 3.1; assay: MIC, broth microdilution; conditions: Klebsiella pneumoniae
[7] = test system: ST512/KPC-31 mutant IMI 3.2; assay: MIC, broth microdilution; conditions: Klebsiella pneumoniae
[8] = test system: K. pneumoniae ST258/KPC-35 (KPC-2 L169P) parental clinical isolate; assay: MIC, broth microdilution; conditions: Klebsiella pneumoniae
[9] = test system: ST258/KPC-35 mutant IMI 1.1; assay: MIC, broth microdilution; conditions: Klebsiella pneumoniae
[10] = test system: ST258/KPC-35 mutant IMI 1.2; assay: MIC, broth microdilution; conditions: Klebsiella pneumoniae
[11] = test system: ST258/KPC-35 mutant IMI 2.1; assay: MIC, broth microdilution; conditions: Klebsiella pneumoniae
[12] = test system: ST258/KPC-35 mutant IMI 2.2; assay: MIC, broth microdilution; conditions: Klebsiella pneumoniae
[13] = test system: ST258/KPC-35 mutant IMI 3.1; assay: MIC, broth microdilution; conditions: Klebsiella pneumoniae
[14] = test system: ST258/KPC-35 mutant IMI 3.2; assay: MIC, broth microdilution; conditions: Klebsiella pneumoniae
[15] = test system: E. coli HB4 KPC-2 L169A; assay: MIC of recombinant strains; conditions: Escherichia coli, HB4KPC2L169A; E. coli HB4 expressing KPC-2 L169A in pUCP24
Description: (§1) 14.0 (www.eucast.org/clinical_breakpoints).
(§2) Recombinant strains were selected in 10 mg/L of gentamicin-LB agar plates. The β-lactam MICs were determined for the transformants according to the above-described methodology.

[16] = test system: E. coli HB4 KPC-2 L169T; assay: MIC of recombinant strains; conditions: Escherichia coli, HB4KPC2L169T; E. coli HB4 expressing KPC-2 L169T in pUCP24
Description: as §1, §2

[17] = test system: E. coli HB4 KPC-2; assay: MIC of recombinant strains; conditions: Escherichia coli, HB4KPC2; E. coli HB4 expressing KPC-2 in pUCP24
Description: as §1, §2

[18] = test system: E. coli HB4 KPC-3 D179N; assay: MIC of recombinant strains; conditions: Escherichia coli, HB4KPC3D179N; E. coli HB4 expressing KPC-3 D179N in pUCP24
Description: as §1, §2

[19] = test system: E. coli HB4 KPC-31 (KPC-3 D179Y); assay: MIC of recombinant strains; conditions: Escherichia coli; E. coli HB4 expressing KPC-31 (KPC-3 D179Y) in pUCP24
Description: as §1, §2

[20] = test system: E. coli HB4 KPC-35 (KPC-2 L169P); assay: MIC of recombinant strains; conditions: Escherichia coli; E. coli HB4 expressing KPC-35 (KPC-2 L169P) in pUCP24
Description: as §1, §2

[21] = test system: E. coli HB4 KPC-3; assay: MIC of recombinant strains; conditions: Escherichia coli, HB4KPC3; E. coli HB4 expressing KPC-3 in pUCP24
Description: as §1, §2

[22] = test system: E. coli HB4; assay: MIC of recombinant strains; conditions: Escherichia coli; E. coli HB4 (OmpC- and OmpF-deficient), no KPC
Description: as §1, §2

SMILES	MIC [1] [µg/mL]	MIC [2] [µg/mL]	MIC [3] [µg/mL]	MIC [4] [µg/mL]	MIC [5] [µg/mL]	MIC [6] [µg/mL]	MIC [7] [µg/mL]	MIC [8] [µg/mL]	MIC [9] [µg/mL]	MIC [10] [µg/mL]	MIC [11] [µg/mL]	MIC [12] [µg/mL]	MIC [13] [µg/mL]	MIC [14] [µg/mL]	MIC [15] [µg/mL]	MIC [16] [µg/mL]	MIC [17] [µg/mL]	MIC [18] [µg/mL]	MIC [19] [µg/mL]	MIC [20] [µg/mL]	further results
NCC[C@H](O)C(=O)N[C@@H]1C[C@H](N)[C@@H](O[C@H]2O[C@H](CN)[C@@H](O)[C@H](O)[C@H]2O)[C@H](O)[C@H]1O[C@H]1O[C@H](CO)[C@@H](O)[C@H](N)[C@H]1O [AMI, amikacin]	> 32	> 32	> 32	> 32	> 32	> 32	> 32	> 32	> 32	> 32	> 32	> 32	> 32	> 32							
C[C@H]1[C@H](NC(=O)/C(=N\OC(C)(C)C(=O)O)c2csc(N)n2)C(=O)N1S(=O)(=O)O [AZT, aztreonam]		> 16	> 16	> 16	> 16	> 16	> 16		> 16	> 16	> 16	> 16	> 16	> 16	64	128	512	8	4	16	MIC [21]: 256 µg/mL; MIC [22]: ≤ 0.5 µg/mL
CC(C)(O/N=C(\C(=O)N[C@@H]1C(=O)N2C(C(=O)[O-])=C(C[n+]3ccccc3)CS[C@H]12)c1csc(N)n1)C(=O)O [CAZ, ceftazidime]	> 256	> 256	> 256	> 256	> 256	> 256	> 256	> 256	256 (≈ 468 µM)	256 (≈ 468 µM)	128 (≈ 234 µM)	128 (≈ 234 µM)	64 (≈ 117 µM)	128 (≈ 234 µM)	> 64	> 64	> 64	> 64	> 64	> 64	MIC [21]: > 64 µg/mL; MIC [22]: 1 µg/mL
C[C@@H](O)[C@H]1C(=O)N2C(C(=O)O)=C(S[C@@H]3CN[C@H](C(=O)Nc4cccc(C(=O)O)c4)C3)[C@H](C)[C@H]12 [ETP, ertapenem]	> 8	> 8	> 8	> 8	> 8	> 8	> 8	> 8	> 8	> 8	> 8	> 8	> 8	> 8							
CO/N=C(\C(=O)N[C@@H]1C(=O)N2C(C(=O)[O-])=C(C[N+]3(C)CCCC3)CS[C@H]12)c1csc(N)n1 [FEP, cefepime]		> 16	> 16	> 16	> 16	> 16	> 16		> 16	> 16	> 16	> 16	> 16	> 16	64	128	256	16	32	64	MIC [21]: 128 µg/mL; MIC [22]: ≤ 0.5 µg/mL
CNC(C)C1CCC(N)C(OC2C(N)CC(N)C(OC3OCC(C)(O)C(NC)C3O)C2O)O1 (stereo not shown) [GEN, gentamicin]	4 (≈ 8.38 µM)	4 (≈ 8.38 µM)	8 (≈ 16.8 µM)	4 (≈ 8.38 µM)	8 (≈ 16.8 µM)	4 (≈ 8.38 µM)	4 (≈ 8.38 µM)	≤ 2	4 (≈ 8.38 µM)	4 (≈ 8.38 µM)	4 (≈ 8.38 µM)	4 (≈ 8.38 µM)	4 (≈ 8.38 µM)	4 (≈ 8.38 µM)							
C[C@H]1COc2c(N3CCN(C)CC3)c(F)cc3c(=O)c(C(=O)O)cn1c23 [LEV, levofloxacin]	> 8	> 8	> 8	> 8	> 8	> 8	> 8	> 8	> 8	> 8	> 8	> 8	> 8	> 8							
C[C@@H](O)[C@H]1C(=O)N2C(C(=O)O)=C(S[C@@H]3CN[C@H](C(=O)N(C)C)C3)[C@H](C)[C@H]12 [MEM, meropenem]	4 (≈ 10.4 µM)	> 64	> 64	> 64	> 64	32 (≈ 83.4 µM)	32 (≈ 83.4 µM)	4 (≈ 10.4 µM)	> 64	> 64	> 64	> 64	64 (≈ 167 µM)	64 (≈ 167 µM)	16	16	> 64	0.25	0.5	2	MIC [21]: > 64 µg/mL; MIC [22]: ≤ 0.06 µg/mL
NC[C@H]1O[C@H](O[C@H]2[C@H](O)[C@@H](O[C@H]3O[C@H](CO)[C@@H](O)[C@H](N)[C@H]3O)[C@H](N)C[C@@H]2N)[C@H](N)C[C@@H]1O [TOB, tobramycin]	> 8	> 8	> 8	> 8	> 8	> 8	> 8	> 8	> 8	> 8	> 8	> 8	> 8	> 8							
